The source of these data is patent US5972937A, “Heterocyclic compounds possessing 5HT2C receptor antagonist activity” (SmithKline Beecham p.l.c., priority 1995, dated 1999).

Structures are written as SMILES.

For this test, the system named is MCPP-induced Hypolocomotion. As to the kind of experiment: Reversal of MCPP-induced Hypolocomotion. Particulars: po, procedure of WO 94/04533, read-out: ID50 (the source's name). Format: in vivo. The procedure: Reversal of MCPP-induced Hypolocomotion
Compounds were tested following the procedure outlined in WO 94/04533. The compound of example 8 has an ID50 of 10.0 mg/kg p.o.

As to `CSc1cc2c(cc1C(F)(F)F)N(C(=O)Nc1cccc(C(=O)NCCN(C)C)c1)CC2` [Example 8, 5-Methylthio-6-trifluoromethyl-1-[3-[(2-dimethylaminoethyl)carbamoyl]phenylcarbamoyl]indoline], the ED50 turned out to be 10 mg/kg.
